From patent US6043279A, “Compounds having selective activity for retinoid X receptors, and means for modulation of processes mediated by retinoid X receptors” (priority 1997, dated 2000)

Experiments:
Assay type in all cases: cell-based
[1] = target: T1, RXRα (Homo sapiens, UniProt P19793); assay: co-transfection (cis-trans) assay in CV-1 cells, RXRα; conditions: for Emax: CV-1, maximal response relative to all-trans-retinoic acid at 10^-5 M, read-out: Efficacy RXRα; for EC50: CV-1 cells, luciferase reporter, concentration giving 50% of maximal observed response, read-out: Potency (nM) RXRα
T1 construct: expressed in transfected cells; host or cells: CV-1 (monkey kidney)
T1 sequence (P19793 1-462): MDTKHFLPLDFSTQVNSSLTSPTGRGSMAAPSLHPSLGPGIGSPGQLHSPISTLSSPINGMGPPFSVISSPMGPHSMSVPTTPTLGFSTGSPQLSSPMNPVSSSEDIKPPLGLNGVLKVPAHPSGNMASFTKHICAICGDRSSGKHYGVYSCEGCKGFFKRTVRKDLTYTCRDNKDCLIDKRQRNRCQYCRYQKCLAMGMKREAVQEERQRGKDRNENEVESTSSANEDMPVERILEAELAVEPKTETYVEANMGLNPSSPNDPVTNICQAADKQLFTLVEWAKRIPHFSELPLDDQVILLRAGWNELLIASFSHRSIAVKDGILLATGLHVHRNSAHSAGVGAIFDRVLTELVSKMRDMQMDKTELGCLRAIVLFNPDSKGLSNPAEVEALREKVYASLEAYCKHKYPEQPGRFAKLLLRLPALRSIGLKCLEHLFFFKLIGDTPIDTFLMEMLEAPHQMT
From the text: (§1) The co-transfection assay provides a mechanism to evaluate the ability of a compound to modulate the transcription response initiated by an intracellular receptor. […] Berger et al., J. Steroid Biochem. Molec.
(§2) Briefly, the co-transfection assay involves the introduction of two plasmids by transient transfection into a retinoid receptor-negative mammalian cell background. The first plasmid contains a retinoid receptor cDNA and directs constitutive expression of the encoded receptor. The second plasmid contains a cDNA that encodes for a readily quantifiable protein, e.g., firefly luciferase or chloramphenicol acetyl transferase (CAT), under control of a promoter containing a retinoid acid response element, which confers retinoid dependence on the transcription of the reporter. In this co-transfection assay, all retinoid receptors respond to all-trans-retinoic acid in a similar fashion. This assay can be used to accurately measure efficacy and potency of retinoic acid and synthetic retinoids as ligands that interact with the individual retinoid receptor subtypes.
(§3) Accordingly, synthetic retinoid compounds of the current invention were evaluated for their interaction with retinoid receptor subtypes using the co-transfection assay in which CV-1 cells were co-transfected with one of the retinoid receptor subtypes, a reporter construct, and an internal control to allow normalization of the response for transfection efficiency. The following example is illustrative.
(§4) Retinoids: All-trans-retinoic acid (RA) and 13-cis-retinoic acid (13-cis-RA) were obtained from Sigma. […] Retinoids were dissolved in dimethylsulfoxide for use in the transcriptional activation assays.
(§5) Co-transfection Assay In CV-1 Cells: A monkey kidney cell line, CV-1, was used in the cis-trans assay. Cells were transfected with two plasmids. […] The cis-vector contains an easily assayable gene product, in this case the firefly luciferase, coupled to a retinoid-responsive promoter, i.e., an RARE or RXRE. Addition of retinoic acid or an appropriate synthetic retinoid results in the formation of a retinoid-RAR or -RXR complex that activates the expression of luciferase gene, causing light to be emitted from cell extracts. The level of luciferase activity is directly proportional to the effectiveness of the retinoid-receptor complex in activating gene expression. This sensitive and reproducible co-transfection approach permits the identification of retinoids that interact with the different receptor isoforms.
(§6) Cells were cultured in DMEM supplemented with 10% charcoal resin-stripped fetal bovine serum, and experiments were conducted in 96-well plates. […] Cells were transfected for 6 h and then washed to remove the precipitate. The cells were then incubated for 36 h with or without retinoid. […]

[2] = target: T2, RXRβ (Mus musculus, UniProt P28704); assay: co-transfection (cis-trans) assay in CV-1 cells, RXRβ; conditions: for Emax: CV-1, maximal response relative to all-trans-retinoic acid at 10^-5 M, read-out: Efficacy RXRβ; for EC50: CV-1 cells, luciferase reporter, concentration giving 50% of maximal observed response, read-out: Potency (nM) RXRβ
T2 construct: expressed in transfected cells; host or cells: CV-1 (monkey kidney)
T2 sequence (P28704 1-520): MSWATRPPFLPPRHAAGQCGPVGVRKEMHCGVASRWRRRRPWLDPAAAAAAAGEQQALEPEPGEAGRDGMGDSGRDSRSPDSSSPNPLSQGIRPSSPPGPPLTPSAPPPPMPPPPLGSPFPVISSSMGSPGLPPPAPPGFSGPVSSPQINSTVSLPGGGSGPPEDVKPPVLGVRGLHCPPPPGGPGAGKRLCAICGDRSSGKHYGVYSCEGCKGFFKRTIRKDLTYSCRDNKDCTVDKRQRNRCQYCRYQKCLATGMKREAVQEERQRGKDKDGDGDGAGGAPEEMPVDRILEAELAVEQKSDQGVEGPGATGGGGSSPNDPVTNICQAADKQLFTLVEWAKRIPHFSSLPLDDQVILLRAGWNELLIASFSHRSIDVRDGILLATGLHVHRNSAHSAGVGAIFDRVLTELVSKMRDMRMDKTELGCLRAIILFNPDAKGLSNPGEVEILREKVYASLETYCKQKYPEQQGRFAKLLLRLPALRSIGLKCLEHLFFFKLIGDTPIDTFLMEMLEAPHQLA
From the text: as §1, §2, §3, §4, §5
Cells were cultured in DMEM supplemented with 10% charcoal resin-stripped fetal bovine serum, and experiments were conducted in 96-well plates. […] Cells were transfected for 6 h and then washed to remove the precipitate. The cells were then incubated for 36 h with or without retinoid. After the transfection, all subsequent steps were performed on a Beckman Biomek Automated Workstation. […] All determinations were performed in triplicate in two independent experiments and were normalized for transfection efficiency by using β-galactosidase as the internal control. […] Efficacy values less than 5% are not statistically different than the 0% background.

[3] = target: T3, RARα (Homo sapiens, UniProt P10276); assay: co-transfection (cis-trans) assay in CV-1 cells, RARα; conditions: for Emax: CV-1, maximal response relative to all-trans-retinoic acid at 10^-5 M, read-out: Efficacy RARα; for EC50: CV-1 cells, luciferase reporter, concentration giving 50% of maximal observed response, read-out: Potency (nM) RARα
T3 construct: expressed in transfected cells; host or cells: CV-1 (monkey kidney)
T3 sequence (P10276 1-462): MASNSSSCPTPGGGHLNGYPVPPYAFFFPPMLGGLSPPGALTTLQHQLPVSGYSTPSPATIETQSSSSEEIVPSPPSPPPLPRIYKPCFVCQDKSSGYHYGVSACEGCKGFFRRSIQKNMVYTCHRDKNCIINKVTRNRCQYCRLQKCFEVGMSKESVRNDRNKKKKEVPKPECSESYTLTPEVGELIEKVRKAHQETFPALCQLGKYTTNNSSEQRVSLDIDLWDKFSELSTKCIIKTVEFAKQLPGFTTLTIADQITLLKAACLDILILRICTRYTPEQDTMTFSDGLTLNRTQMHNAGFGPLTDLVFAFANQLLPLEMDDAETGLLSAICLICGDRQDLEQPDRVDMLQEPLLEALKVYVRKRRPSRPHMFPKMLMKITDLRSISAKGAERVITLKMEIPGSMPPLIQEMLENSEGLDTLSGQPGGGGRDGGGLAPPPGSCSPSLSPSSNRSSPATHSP
From the text: as §1, §2, §3, §4, §5, §6

| SMILES | Emax [1] | EC50 [1] | Emax [2] | EC50 [2] | Emax [3] | EC50 [3] |
| --- | --- | --- | --- | --- | --- | --- |
| Cc1cc(C(C)(C)C)ccc1C(=NO)c1ccc(C(=O)O)cc1 [Compound 137, 4-[(2-methyl-4-t-butylphenyl)carbonyl]benzoic acid oxime] | 47% | 270 nM | 57% | 270 nM | < 2% | > 10000 nM |
| C=C(c1ccc(C(=O)O)cc1)c1ccc(C(C)(C)C)cc1C [Compound 133, 4-[1-(2-methyl-4-t-butylphenyl)ethenyl]benzoic acid] | 86% | 440 nM | 56% | 470 nM | < 2% | > 10000 nM |
